Data set [1] is described as follows: In vitro stability of radiolabeled DANBIRT in fetal bovine serum and 0.9% saline. To be noted: FBS and 0.9% saline, 4 hours. The class given is in vitro ADME. How it is done:
Incubation of [^68Ga] Ga-DANBIRT with Fetal Bovine Serum (FBS) (Atlanta Biologicals, S11150) and 0.9% saline solution was performed in vitro stability analysis. Triplicate samples were drawn from radiolabeled stock and kept incubated at 37° C. until time of analysis. ITLC was performed once at each time point and HPLC assessment was performed in triplicates at baseline, 5, 10, 30, 60, 120 and 240 minutes of incubation. The mean incorporation yield and radiochemical purity were calculated from sample results. Following methods by Poria et al methods were modified for use in a Ultra-Performance Liquid Chromatography (UPLC) using an Acquity UPLC BEH C-18 1.7 μm column (2.1×50 mm) (Waters Corporation, 186002350). UPLC gradient with flow rate is described in FIG. 14.

Data set [2] is described as follows: Ex vivo biodistribution of [111In] In-DANBIRT post tail vein injection in ApoE-/- mice. The method, then: • Animals were imaged for ˜75 minutes 3 hrs post tail vein injection of ˜700 uCi (˜25.9 Mbq) of ^111In-DANBIRT • Atorvastatin was administered in the drinking water and PPAR-Delta agonist (GW1516) was incorporated into food pellets by diet manufacturing company. • Organ and serum collection for bio distribution and lipid levels and sub particles size analysis was performed after last imaging time point
Upon completion of 8 weeks on normal or HFD, mice were euthanized 3 hours post-injection of 700 μCi of [^111In] In-DANBIRT via tail vein; organs were harvested for weight assessment and [^111In] In-DANBIRT uptake using an Automatic Wizard 2 Gamma counter (Perkin Elmer). Organs collected were: tail, whole blood, aorta (from aortic arch to thoracic aorta), carotids (front aortic arch to bifurcation), heart, liver, muscle and adipose tissue. Whole blood was collected with direct cardiac puncture of right ventricle using a 24-gauge needle of right ventricle with a heparinized syringe and centrifuged for 15 minutes at 1000 g at 4° C. Serum, erythrocytes (RBC) and leukocytes (WBC) containing isolated samples were collected and measured for [^111In] In-DANBIRT uptake using a gamma counter. Uptake was decay-corrected and percent-injected activity per gram (% IA/gr) was determined for each mouse.

The target of data set [3] is T1, LFA-1 receptor (Rattus norvegicus, UniProt F1LP44).
T1 construct: endogenous in cells; host or cells: neutrophils and PBMCs from whole blood of male Sprague Dawley rats
T1 sequence (F1LP44 24-1161): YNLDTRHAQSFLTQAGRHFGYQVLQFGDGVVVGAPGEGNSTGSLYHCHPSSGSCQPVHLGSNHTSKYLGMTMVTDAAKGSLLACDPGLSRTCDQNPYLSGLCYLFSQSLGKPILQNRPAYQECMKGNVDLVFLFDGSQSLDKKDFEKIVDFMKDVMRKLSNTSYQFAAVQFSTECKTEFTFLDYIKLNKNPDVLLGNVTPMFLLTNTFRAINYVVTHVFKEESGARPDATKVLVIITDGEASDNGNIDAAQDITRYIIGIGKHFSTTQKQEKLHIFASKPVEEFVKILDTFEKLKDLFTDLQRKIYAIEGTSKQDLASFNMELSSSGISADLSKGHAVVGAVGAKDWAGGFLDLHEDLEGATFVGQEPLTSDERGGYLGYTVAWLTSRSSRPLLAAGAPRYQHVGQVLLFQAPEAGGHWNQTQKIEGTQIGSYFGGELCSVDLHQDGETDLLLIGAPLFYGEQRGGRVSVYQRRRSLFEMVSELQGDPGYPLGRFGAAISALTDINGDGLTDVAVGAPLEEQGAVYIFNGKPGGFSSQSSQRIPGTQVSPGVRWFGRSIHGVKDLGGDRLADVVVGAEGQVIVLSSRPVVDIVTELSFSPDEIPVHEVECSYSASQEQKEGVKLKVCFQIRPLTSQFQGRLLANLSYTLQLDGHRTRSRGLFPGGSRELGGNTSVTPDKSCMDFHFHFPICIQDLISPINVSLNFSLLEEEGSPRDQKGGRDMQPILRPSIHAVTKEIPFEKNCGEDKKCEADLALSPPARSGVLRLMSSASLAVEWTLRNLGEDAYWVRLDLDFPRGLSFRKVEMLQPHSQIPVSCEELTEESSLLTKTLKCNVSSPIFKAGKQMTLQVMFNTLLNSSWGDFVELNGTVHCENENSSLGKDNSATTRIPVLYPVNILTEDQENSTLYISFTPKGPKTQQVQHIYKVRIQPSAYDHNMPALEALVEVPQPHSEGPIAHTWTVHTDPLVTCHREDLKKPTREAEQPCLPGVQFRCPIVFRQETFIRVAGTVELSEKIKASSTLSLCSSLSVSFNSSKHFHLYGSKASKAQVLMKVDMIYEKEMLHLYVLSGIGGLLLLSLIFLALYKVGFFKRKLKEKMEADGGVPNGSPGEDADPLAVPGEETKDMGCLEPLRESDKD
In words: Radioisotopic dilution / competitive leukocyte binding assay. To be noted: compared to neutrophil sample, p<0.05. How it is done:
(§1) Radioisotopic dilution methods were performed with log-fold serial dilutions at concentrations of 1:1, 1:10, 1:100 and 1:1000 radiolabeled DANBIRT. Rat whole blood was collected and incubated for 10 minutes with [^111In] In-DANBIRT. Leukocyte isolation was performed for neutrophil and PBMC separations post-incubation with radiolabeled DANBIRT (specific activity 625 mCi/pM). Cytospin 2 (Shandon 2,59900002) with double-funnel and white filter (Simport, 930941126) was used for clustered cell differentials identification methods. Cytospin samples were spread in Superfrost Plus slides (VWR, 48311-703) and fixed with […]. Wright-Giemsa horizontal staining protocol was performed according to manufacturer's package insert instructions (Sigma Aldrich, SLBN4704V). Cell morphology, differentials and sample purity were assessed using a light microscope at 40× objective (Olympus BX51).

Data set [4] deals with LFA-1 receptor. The description is as above. More on the design: species or system Rat. To be noted: serum, RBC and PBMC samples. The method, then:
as §1

[5] abbreviates: 8 weeks of diet, 3 hours post-injection, p<0.05.

With `C[C@]1(Cc2ccc(Br)cc2)C(=O)N(c2cc(Cl)cc(Cl)c2)C(=O)N1CCCCNC(=O)CN1CCN2CCN3CCN(CC1)CC(=O)[O][111In]([O]C(=O)C2)[O]C(=O)C3` [[^111In] In-DANBIRT], the stability on incubation entry in data set [1] is given as “maintained throughout 4 hours of incubation”. Moreover, in data set [2] (setting [5]), the “uptake in RBC and WBC samples, HFD vs normal diet” value was “increased uptake”; the “uptake in cardiovascular tissues (heart, aorta, carotids), HFD vs normal diet” value was “higher uptake”. Further, in data set [2] (8 weeks of diet, p<0.05), the “% IA/gr of tissue, HFD vs normal diet” value was “increase”. The “uptake in adipose tissue and muscle” value in data set [2] (3 hours post-injection) is on record as “low uptake”. The “uptake in serum compared to other blood components” value in data set [2] (3 hours post-injection of 700 μCi) is “high uptake”. Moreover, the “uptake in liver compared to other tissues” value in data set [2] (3 hours post-injection of 700 μCi, regardless of dietary treatment) was “high uptake”. In addition, in data set [2] (Example 2, 1st cohort), the “organ bio distribution uptake in liver, serum, aorta and blood components” value is “significant uptake”. On LFA-1 receptor [3], the “saturation in PBMCs at different dilution concentrations” value was “did not evidence any saturation levels”. The “decrease of initial uptake after each log fold dilution concentration” value with LFA-1 receptor [4] amounted to 50%.

These data come from US10744214B2, “Method of diagnosing and/or monitoring therapy of atherosclerosis” (STC.UNM, priority 2015, dated 2020).
